Results: US12421228B2 (Mirati Therapeutics, Inc., priority 2019, dated 2025)

Assays:
[1] = tested on: PRC2-mediated histone H3 methylation in Pfeiffer cells (EZH2 A677G); test: Tri-Methyl Histone H3 (Lys 27) sandwich ELISA in Pfeiffer cells; format: cell-based; settings: Homo sapiens, 96 hours incubation, H3K27me3 ELISA, read-out: IC50 (nM), Inhibition of EZH2-mediated Histone H3 Trimethylation
Excerpt: The Pfeiffer cell line was established from a […] from a patient having metastatic diffuse large B-cell lymphoma (DLBCL). This cell line expresses a mutant form of the EZH2 enzyme (A677G) that results in enhanced EZH2 activity leading to increased methylation of histone H3 Lys27. Increased trimethylation of histone H3 Lys27 is believed to be implicated in tumorgenesis and poor clinical prognosis in lymphomas (McCabe et al., (2012) Nature 492:108-112).
Inhibition of PRC2-mediated histone H3 methylation by compounds of Formula (I) was measured by ELISA using a Tri-Methyl Histone H3 (Lys 27) Sandwich ELISA Kit (Cell Signaling Tech #7866C) in accordance with the manufacturer's instructions. Briefly, Pfeiffer cells were cultured in RPMI medium supplemented with 10% fetal bovine serum and 1% penicillin and 1% streptomycin in 96 well culture plates at 37° C. to a density of 8000 cells/90 μl/well and the cells were harvested. A series of 3-fold serial dilutions of each test compound of Formula (I) were prepared in RPMI medium and added to the cells at final concentrations ranging from […] to 0.15 nM. The plates were incubated at 37° C. for 96 hours.
After incubation, the cells were pelleted by centrifugation in a pre-cooled 4° C. rotor at 1,100 rpm for 10 min and the supernatant was removed by aspiration. The cell pellet was resuspended in 55 μl of Lysis Buffer (0.4M HCl) and incubated on ice with periodic shaking for 30 minutes. The lysed cells were subjected to centrifugation at 4,200 rpm for 10 min at 4° C. and the supernatant containing acid-soluble proteins was collected and the remainder discarded. The acid-soluble proteins were brought to a neutral pH by the addition of 20 μl of Neutralization Buffer (1 M Sodium phosphate, dibasic (pH 12.5), 2.5 mM DTT and 1 mM PMSF) and the neutralized lysates were analyzed by ELISA.
A 65 μl aliquot of each cell lysate was added to a well of a microwell strip, the microwells were sealed using tape and incubated either at 37° C. for two hours or at 4° C. overnight. After incubation, the tape was removed at the microwells were washed four times using 200 μl of 1× Wash Buffer. To each washed microwell, a 100 μl aliquot of an anti-trimethyl histone H3 Lys27 Detection Antibody solution was added and the microwells were incubated at 37° C. for one hour. The Detection Antibody solution was removed by aspiration and the wells were washed four times each using 200 μl of 1× Wash Buffer.
A 100 μl aliquot of an HRP-linked secondary antibody was added to each well, the wells were sealed with tape and incubated at 37° C. for 30 min. The HRP-linked secondary antibody solution was removed by aspiration and the wells were washed four times using 200 μl of 1× Wash Buffer. A 100 μl aliquot of a TMB substrate was added to each well, the wells were sealed with tape and incubated at 37° C. for 10 min or 25° C. for 30 min. The reaction was stopped by the addition of 100 μl aliquot of a STOP solution and the plate was shaken briefly. The degree of histone H3 trimethylation was determined using a spectrophotometric readout by measuring the absorbance at 450 nm and then calculating the amount of trimethylated histone H3. A=≤100 nM; B=>100 nM−≤500 nM; C=>500 nM and N.D.=not determined.

[2] = tested on: Karpas 422 cells (EZH2 Y641N); test: Karpas 422 cell viability (Cell Titre Glo); format: cell-based; settings: Homo sapiens, CTG viability, Day 4, Day 7 or Day 11 (time point not given), read-out: IC50 (nM), Inhibiting Proliferation of Cells Expressing an Activating Mutant Form of EZH2
Procedure: Karpas 422 cell line is a human B cell non-Hodgkin's lymphoma cell line established from a patient having DLBCL. This EZH2 heterozygotic cell line expresses a mutant form of EZH2 enzyme (Y641N) that increases histone H3 methylation and this mutation has been implicated in the tumorgenesis of lymphomas, such as DLBCL.
Karpas 422 cells (PHE cat no., 06101702) were cultured in RPMI medium supplemented with 20% fetal bovine serum and 1% penicillin/1% streptomycin and plated at a density of 1000 cells/90 μl/well in 96 well white assay plates. A dose response curve for compounds of the present invention was determined by adding a 10 μl aliquot of stock solutions of varying concentrations of compounds to the same medium in each well, over a concentration range of 10 μM using 3-fold dilutions to a final concentration of 1.5 nM. The plates were incubated at 37° C. for predetermined time periods, Day 4, Day 7, or Day 11, and the viability of the cells was measured using a CTG assay kit (Cell Titre Glo; Promega cat. no G7573) on Day 4 and Day 7 in accordance with the manufacturer's instructions.
For the viability assay for the Day 11 plates, the plates were subjected to centrifugation at 1100 rpm for five minutes on Day 7 and the supernatant was removed by aspiration. The cells were resuspended in 90 μl aliquot of the appropriate growth medium lacking the compound followed by addition of 10 μl of a 10× stock of the same compound at the same concentration. The viability of the Day 11 cells was measured using the CTG assay kit described above in accordance with the manufacturer's instructions. The IC50 values for each compound at each predetermined time point were calculated using Graph pad PRISM software and the results are shown in Table 8. A=≤250 nM; B=[…]−≤500 nM; C=>500 nM and N.D.=not determined.

[3] = molecular target: purified human, His-tagged PRC2 complex (Homo sapiens (Human), UniProt O75530); test: Hot Spot HMT assay, inhibition of PRC2 enzymatic activity; format: biochemical; settings: 10 nM PRC2 complex, 0.05 mg/ml core histone H3, 1 μM 3H-SAM, 1 hr at 30° C.; read-out: IC50, Inhibition of PRC2-mediated Enzymatic Activity
Procedure: Ten-point dose-response curves for compounds of the present invention were determined using a Hot Spot HMT assay (Reaction Biology Corp; see Horiuchi et al., Assay Drug Dev Technol. (2013) 4: 227-236 doi: 10.1089/adt.2012.480). The assay uses purified human, His-tagged PRC2 complex, including N-terminal His-tagged EZH2 enzyme, N-terminal Flag-tagged embryonic ectoderm development protein (EED), N-terminal His-tagged suppressor of zeste 12 (SUZ12), N-terminal His-tagged AEBP2, and N-terminal His-tagged RbAp48. In this assay, the transfer of the tritiated methyl group from radiolabeled S-adenosyl methionine (SAM) to purified core histone protein by EZH2 is quantitated after filtration to determine the activity of the core PRC2 complex in the presence and absence of compound.
Briefly, compounds of the present invention were solubilized in DMSO and a series of 10, three-fold serial dilutions were made for each compound in 15% DMSO. The initial starting concentration for the serial dilutions of each compound was 1.0 μM. Control samples lacking compound, EZH2 enzyme or various reaction components also were prepared and processed in parallel with compound test samples. SAH (S-(5-adenosyl)-L-homocysteine) was used as a positive control for assay validation.
An aliquot of each serial dilution of test compound was added to deep 384 well plate using Acoustic Technology instrument (Echo 550, LabCyte) containing reaction buffer (50 mM Tris-HCl (pH 8)), 0.01% Brij35, 1 mM EDTA, 1 mM DTT, 1 mM PMSF and 1% DMSO), 10 nM purified PRC2 complex and 0.05 mg/ml core histone H3 in a 5 μl volume. The reaction was mixed gently and then pre-incubated for 20 min at 30° C. The enzymatic reaction was initiated by adding 1 μM S-Adenosyl-L-[methyl-^3H]methionine and incubated for 1 hr at 30° C. After 1 hr, the reaction product was detected using a filter binding method and the amount of tritiated H3 core histone was quantitated using a scintillation counter. The IC50 value for each compound was determined from each 10-point dose-response curve using GraphPad Prism software and the results for compounds of present invention, including compounds of Formula (I) and Formula (II) are shown in Table 6. Key: A=<100 nM; B=>100 nM−<250 nM; and C=>250 nM.

Chain of purified human, His-tagged PRC2 complex (Q15910 whole entry): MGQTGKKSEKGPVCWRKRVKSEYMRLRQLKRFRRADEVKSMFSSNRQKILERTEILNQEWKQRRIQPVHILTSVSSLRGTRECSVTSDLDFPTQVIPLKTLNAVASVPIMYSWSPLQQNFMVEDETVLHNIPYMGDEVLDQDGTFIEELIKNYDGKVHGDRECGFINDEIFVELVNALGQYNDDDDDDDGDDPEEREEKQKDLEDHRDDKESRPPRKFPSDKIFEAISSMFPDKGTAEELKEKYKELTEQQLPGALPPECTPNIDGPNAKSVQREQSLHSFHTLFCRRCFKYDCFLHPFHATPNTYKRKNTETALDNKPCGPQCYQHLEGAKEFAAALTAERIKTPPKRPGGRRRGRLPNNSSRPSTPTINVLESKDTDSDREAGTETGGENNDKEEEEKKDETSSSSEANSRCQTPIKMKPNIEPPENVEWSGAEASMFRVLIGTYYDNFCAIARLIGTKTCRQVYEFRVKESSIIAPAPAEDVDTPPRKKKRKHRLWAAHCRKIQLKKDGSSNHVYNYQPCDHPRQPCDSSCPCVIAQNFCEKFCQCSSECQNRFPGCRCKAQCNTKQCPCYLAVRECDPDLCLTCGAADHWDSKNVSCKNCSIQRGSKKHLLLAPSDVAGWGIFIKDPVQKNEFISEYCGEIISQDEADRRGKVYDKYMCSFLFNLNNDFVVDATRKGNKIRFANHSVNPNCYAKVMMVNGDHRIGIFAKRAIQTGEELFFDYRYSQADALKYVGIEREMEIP
Chain of purified human, His-tagged PRC2 complex (O75530 whole entry): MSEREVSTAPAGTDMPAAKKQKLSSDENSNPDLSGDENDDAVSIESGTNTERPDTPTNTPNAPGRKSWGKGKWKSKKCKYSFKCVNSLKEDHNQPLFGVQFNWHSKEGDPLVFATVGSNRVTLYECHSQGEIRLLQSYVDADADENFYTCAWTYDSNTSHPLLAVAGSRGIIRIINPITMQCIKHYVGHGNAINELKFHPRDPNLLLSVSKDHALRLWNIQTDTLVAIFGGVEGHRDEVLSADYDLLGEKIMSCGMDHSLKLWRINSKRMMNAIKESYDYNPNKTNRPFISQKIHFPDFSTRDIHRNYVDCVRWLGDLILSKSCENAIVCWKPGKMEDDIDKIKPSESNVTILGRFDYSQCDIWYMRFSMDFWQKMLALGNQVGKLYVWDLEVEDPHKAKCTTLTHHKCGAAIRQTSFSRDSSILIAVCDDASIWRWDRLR
Chain of purified human, His-tagged PRC2 complex (Q15022 whole entry partner): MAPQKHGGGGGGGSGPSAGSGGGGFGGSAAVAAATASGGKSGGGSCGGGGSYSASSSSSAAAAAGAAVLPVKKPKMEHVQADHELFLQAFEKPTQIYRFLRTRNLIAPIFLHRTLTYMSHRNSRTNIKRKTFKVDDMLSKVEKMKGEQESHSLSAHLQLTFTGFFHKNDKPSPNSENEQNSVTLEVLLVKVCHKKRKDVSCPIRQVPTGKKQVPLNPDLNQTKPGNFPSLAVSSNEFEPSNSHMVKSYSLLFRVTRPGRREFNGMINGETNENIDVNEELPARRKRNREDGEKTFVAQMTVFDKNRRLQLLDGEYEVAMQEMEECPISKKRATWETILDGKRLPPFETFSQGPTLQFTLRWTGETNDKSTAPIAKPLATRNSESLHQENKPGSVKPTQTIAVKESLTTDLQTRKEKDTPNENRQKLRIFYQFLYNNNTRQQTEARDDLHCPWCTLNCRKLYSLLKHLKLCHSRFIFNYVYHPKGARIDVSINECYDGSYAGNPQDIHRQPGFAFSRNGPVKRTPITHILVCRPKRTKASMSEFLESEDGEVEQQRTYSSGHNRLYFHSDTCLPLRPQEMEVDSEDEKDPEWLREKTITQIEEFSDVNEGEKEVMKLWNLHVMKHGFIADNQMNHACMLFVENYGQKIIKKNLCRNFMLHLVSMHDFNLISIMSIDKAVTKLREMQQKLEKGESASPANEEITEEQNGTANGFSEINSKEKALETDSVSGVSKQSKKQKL
Chain of purified human, His-tagged PRC2 complex (Q6ZN18 whole entry partner): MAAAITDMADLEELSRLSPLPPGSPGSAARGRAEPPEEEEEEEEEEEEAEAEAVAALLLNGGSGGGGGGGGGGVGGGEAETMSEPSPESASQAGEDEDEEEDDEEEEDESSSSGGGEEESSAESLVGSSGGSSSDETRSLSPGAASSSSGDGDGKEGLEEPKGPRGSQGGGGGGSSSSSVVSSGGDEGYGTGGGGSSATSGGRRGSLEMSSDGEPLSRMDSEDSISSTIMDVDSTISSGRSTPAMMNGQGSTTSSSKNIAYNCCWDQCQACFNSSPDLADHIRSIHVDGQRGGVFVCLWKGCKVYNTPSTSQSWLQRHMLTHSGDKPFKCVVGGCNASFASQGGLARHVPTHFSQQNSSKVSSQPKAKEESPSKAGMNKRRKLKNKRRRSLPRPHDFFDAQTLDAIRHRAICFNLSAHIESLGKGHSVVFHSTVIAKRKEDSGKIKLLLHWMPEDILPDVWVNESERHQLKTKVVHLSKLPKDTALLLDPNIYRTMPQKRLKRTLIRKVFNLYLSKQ
Chain of purified human, His-tagged PRC2 complex (Q09028 whole entry partner): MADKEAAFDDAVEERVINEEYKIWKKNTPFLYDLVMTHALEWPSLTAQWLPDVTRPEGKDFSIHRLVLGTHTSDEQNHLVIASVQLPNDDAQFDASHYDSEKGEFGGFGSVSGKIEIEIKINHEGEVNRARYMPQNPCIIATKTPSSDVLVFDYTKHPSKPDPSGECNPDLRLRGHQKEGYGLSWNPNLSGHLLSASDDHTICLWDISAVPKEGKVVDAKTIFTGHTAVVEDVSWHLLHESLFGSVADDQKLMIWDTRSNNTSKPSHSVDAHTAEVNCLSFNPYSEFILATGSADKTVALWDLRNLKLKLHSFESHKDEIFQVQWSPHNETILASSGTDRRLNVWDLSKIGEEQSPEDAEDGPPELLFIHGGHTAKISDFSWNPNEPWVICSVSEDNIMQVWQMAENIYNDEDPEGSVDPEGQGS

SMILES | IC50 [1] | IC50 [2] | IC50 [3]
CNCc1ccc(-c2cnc(NCc3c(F)ccc4c3CCO4)c3cnncc23)c(C)c1 [Example 19, N-((5-fluoro-2,3-dihydrobenzofuran-4-yl)methyl)-8-(2-methyl-4-((methylamino)methyl)phenyl)pyrido[3,4-d]pyridazin-5-amine] | ≤ 100 nM | ≤ 250 nM | < 100 nM
Cc1cc(-c2cnc(NCc3c(F)ccc4c3CCO4)c3c[nH]c(=O)cc23)n(C)n1 [Example 35, 5-(1,3-dimethyl-1H-pyrazol-5-yl)-8-(((5-fluoro-2,3-dihydrobenzofuran-4-yl)methyl)amino)-2,7-naphthyridin-3(2H)-one] | ≤ 100 nM | ≤ 250 nM | < 100 nM
Cc1cc(-c2cnc(NCc3c(F)ccc4c3CCO4)c3cnc(OC(C)C)cc23)n(C)n1 [Example 43] | > 500 nM | > 500 nM | > 250 nM
COc1ncc2c(NCc3c(F)ccc4c3CCO4)ncc(-c3cc(C)nn3C)c2n1 [Example 28, 8-(1,3-dimethyl-1H-pyrazol-5-yl)-N-((5-fluoro-2,3-dihydrobenzofuran-4-yl)methyl)-2-methoxypyrido[4,3-d]pyrimidin-5-amine] | 100 to 500 nM | ≤ 250 nM | < 100 nM
Cc1cc(S(C)(=O)=O)ccc1-c1cnc(NCc2c(F)ccc3c2CCO3)c2cnncc12 [Example 3] | ≤ 100 nM | ≤ 250 nM | < 100 nM
CCNCc1ccc(-c2cnc(NCc3c(F)ccc4c3CCO4)c3cnncc23)c(C)c1 [Example 20, 8-(4-((ethylamino)methyl)-2-methylphenyl)-N-((5-fluoro-2,3-dihydrobenzofuran-4-yl)methyl)pyrido[3,4-d]pyridazin-5-amine] | ≤ 100 nM | ≤ 250 nM | < 100 nM
Cc1cc(-c2cnc(NCc3c(F)ccc4c3CCO4)c3nc[nH]c(=O)c23)n(C)n1 [Example 58, 5-(1,3-dimethyl-1H-pyrazol-5-yl)-8-(((5-fluoro-2,3-dihydrobenzofuran-4-yl)methyl)amino)pyrido[3,4-d]pyrimidin-4(3H)-one] | > 500 nM | > 500 nM | > 250 nM

The remaining lines, values ahead:

IC50 [1] | IC50 [2] | IC50 [3] | SMILES
≤ 100 nM | ≤ 250 nM | < 100 nM | CN(C)C(=O)c1cc(-c2cnc(NCc3c(F)ccc4c3CCO4)c3cnccc23)n(C)n1 [Example 32, 5-(1-(((5-fluoro-2,3-dihydrobenzofuran-4-yl)methyl)amino)-2,7-naphthyridin-4-yl)-N,N,1-trimethyl-1H-pyrazole-3-carboxamide]
≤ 100 nM | ≤ 250 nM | < 100 nM | CN(C)C(=O)c1cc(-c2cnc(NCc3c(F)ccc4c3CCO4)c3cnncc23)n(C)n1 [Example 15, 5-(5-(((5-fluoro-2,3-dihydrobenzofuran-4-yl)methyl)amino)pyrido[3,4-d]pyridazin-8-yl)-N,N,1-trimethyl-1H-pyrazole-3-carboxamide]
> 500 nM | > 500 nM | 100 to 250 nM | COc1cc2c(-c3cc(C)nn3C)cnc(NCc3c(F)ccc4c3CCO4)c2cn1 [Example 34, 4-(1,3-dimethyl-1H-pyrazol-5-yl)-N-((5-fluoro-2,3-dihydrobenzofuran-4-yl)methyl)-6-methoxy-2,7-naphthyridin-1-amine]
> 500 nM | > 500 nM | > 250 nM | COc1ncnc2c(NCc3c(F)ccc4c3CCO4)ncc(-c3cc(C)nn3C)c12 [Example 57, 5-(1,3-dimethyl-1H-pyrazol-5-yl)-N-((5-fluoro-2,3-dihydrobenzofuran-4-yl)methyl)-4-methoxypyrido[3,4-d]pyrimidin-8-amine]
> 500 nM | > 500 nM | > 250 nM | COc1ccc2c(NCc3c(F)ccc4c3CCO4)ncc(-c3cc(C)nn3C)c2n1 [Example 52, 8-(1,3-dimethyl-1H-pyrazol-5-yl)-N-((5-fluoro-2,3-dihydrobenzofuran-4-yl)methyl)-2-methoxy-1,6-naphthyridin-5-amine]
≤ 100 nM | ≤ 250 nM | < 100 nM | CNS(=O)(=O)c1ccc(-c2cnc(NCc3c(F)ccc4c3CCO4)c3cnncc23)cc1 [Example 7]
≤ 100 nM | ≤ 250 nM | < 100 nM | Cc1cc(-c2cnc(NCc3c(F)ccc4c3CCO4)c3cnncc23)ccn1 [Example 12]
100 to 500 nM | ≤ 250 nM | > 250 nM | Cc1ncccc1-c1cnc(NCc2c(F)ccc3c2CCO3)c2c[nH]c(=O)cc12 [Example 36]
≤ 100 nM | ≤ 250 nM | > 250 nM | Cc1c(-c2cnc(NCc3c(F)ccc4c3CCO4)c3cnncc23)ccc(CN(C)C)c1F [Example 5]
